Assay results reported in ChEMBL document CHEMBL5620415, “Design, synthesis and anti-hepatic fibrosis activity of novel diphenyl vitamin D receptor agonists” (Eur J Med Chem, 2023).
The source made the active and inactive calls. No cut-off for these calls is given here.

How the values were obtained:
[1] = biological target: T1, Vitamin D3 receptor (Homo sapiens) (UniProt P11473); assay: Binding affinity to human full-length Vitamin D receptor assessed as relative binding affinity at 1 uM incubated for 2 hrs by fluorescence polarization based competitive binding assay relative to calcipotriol
T1 sequence (whole entry): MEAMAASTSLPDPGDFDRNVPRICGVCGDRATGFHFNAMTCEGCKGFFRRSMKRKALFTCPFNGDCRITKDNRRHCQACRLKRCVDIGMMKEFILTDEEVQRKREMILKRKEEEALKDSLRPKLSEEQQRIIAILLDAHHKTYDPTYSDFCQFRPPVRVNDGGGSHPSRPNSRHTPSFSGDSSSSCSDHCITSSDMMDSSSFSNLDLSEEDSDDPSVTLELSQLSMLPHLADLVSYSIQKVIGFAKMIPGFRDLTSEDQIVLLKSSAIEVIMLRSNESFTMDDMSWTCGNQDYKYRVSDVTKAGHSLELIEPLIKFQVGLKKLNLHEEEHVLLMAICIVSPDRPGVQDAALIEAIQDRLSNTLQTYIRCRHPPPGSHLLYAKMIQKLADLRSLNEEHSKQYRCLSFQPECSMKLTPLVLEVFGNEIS

[2] = Cytotoxicity against human LX-2 cells by CCK-8 assay; type: toxicity, cell-based
[3] = biological target: T1, Vitamin D3 receptor (Homo sapiens); assay: Agonist activity at Vitamin D receptor in human LX-2 cells assessed as transcriptional activity by measuring induction of CYP24A expression at 0.5 uM by RT-qPCR analysis relative to control; type: cell-based

SMILES	RBA ([1]; filed as agonist) [%]	IC50 [2] [µM]	RBA [1] [%]	Activity [3]	Activity ([3]; filed as agonist)
C=CCC(O)(CC=C)CCCOc1cccc(/C=C/c2ccc(CO)c(CO)c2)c1	40.5	> 30			
C=CCC(O)(CC=C)CCCCOc1ccc(CCc2ccc(CO)c(CO)c2)cc1		> 30	16.2	inactive	
C=CCC(O)(CC=C)CCCCCOc1cccc(COc2ccc(CO)c(CO)c2)c1	46.2	> 30			Active
CCC(O)(CC)CCCOc1cccc(C(C)Oc2ccc(CO)c(CO)c2)c1 (stereo not drawn)	45.1	> 30			
COC(=O)CCCCOc1cccc(COc2ccc(CO)c(CO)c2)c1	45.7	> 30			
CCCCC(Oc1ccc(CO)c(CO)c1)c1cccc(OCCCC(O)(CC)CC)c1 (stereo not drawn)	42.2	> 30			
CC(C)(O)CCCOc1cccc(COc2ccc(CO)c(CO)c2)c1		> 30	27.2		
CCC(O)(CC)CCCCCOc1cccc(/C=C/c2ccc(CO)c(CO)c2)c1		> 30	33.5		
OCCCCCCOc1cccc(COc2ccc(CO)c(CO)c2)c1		> 30	9.25		
CCN(CC)CCCOc1cccc(/C=C/c2ccc(CO)c(CO)c2)c1	42.2	> 30			
OCCCCCOc1ccc(CCc2ccc(CO)c(CO)c2)cc1	46.2	> 30		inactive	
CCN(CC)C(=O)CCCOc1cccc(COc2ccc(CO)c(CO)c2)c1		> 30	8.67		
C=CCC(O)(CC=C)CCCOc1cccc(COc2ccc(CO)c(CO)c2)c1		> 30	20.2		
CCC(O)(CC)CCCOc1cccc(C(Oc2ccc(CO)c(CO)c2)C(C)C)c1 (stereo not drawn)		> 30	36.4		
OCCCCOc1cccc(/C=C/c2ccc(CO)c(CO)c2)c1		> 30	11.6		
COC(=O)CCCOc1cccc(COc2ccc(CO)c(CO)c2)c1		> 30	19.6		
CCC(O)(CC)CCOc1cccc(/C=C/c2ccc(CO)c(CO)c2)c1		> 30	38.1		
O=C(O)CCCOc1cccc(/C=C/c2ccc(CO)c(CO)c2)c1		> 30	37		
O=C(CCCOc1cccc(COc2ccc(CO)c(CO)c2)c1)N1CCOCC1		> 30	17.9		
CCC(O)(CC)CCCCOc1ccc(/C=C/c2ccc(CO)c(CO)c2)cc1		> 30	31.2		
CC(C)(O)CCCCOc1cccc(COc2ccc(CO)c(CO)c2)c1		> 30	9.25		
O=C(CCCOc1cccc(COc2ccc(CO)c(CO)c2)c1)N1CCCCC1		> 30	24.9		
CCC(O)(CC)CCCCOc1cccc(COc2ccc(CO)c(CO)c2)c1		> 30	35.8		
CCC(O)(CC)CCCCOc1cccc(/C=C/c2ccc(CO)c(CO)c2)c1		> 30	23.1		
CC(C)(O)CCCCCOc1cccc(COc2ccc(CO)c(CO)c2)c1		> 30	27.2		
CCC(O)(CC)CCCOc1cccc(COc2ccc(CO)c(CO)c2)c1	43.4	> 30			Active
CCN(CC)CCCOc1cccc(COc2ccc(CO)c(CO)c2)c1	49.7	> 30			
